For 16 compounds, Activity and inhibition results are on record in ChEMBL document CHEMBL4808164, “Giffonins, Antioxidant Diarylheptanoids from Corylus avellana, and Their Ability to Prevent Oxidative Changes in Human Plasma Proteins” (J Nat Prod, 2021).

In general, inhibition refers to the change of the read-out against control, counted positive when it falls.

Activity calls are given as the source filed them. The rule behind the calls is not given here.

Data set [1] has as its system Plasma. As to the kind of experiment: Antioxidant activity in human plasma protein assessed as reduction of H2O2/Fe2+-induced plasma protein carbonylation at 10 uM incubated for 30 mins. Format: functional.
Data set [2] deals with Plasma. As to the kind of experiment: Antioxidant activity in human plasma protein assessed as reduction of H2O2/Fe2+-induced oxidation of thiol group at 10 uM incubated for 30 mins by Ellman reagent based spectrophotometry. Format: functional, cell-free. In general terms: DTNB colorimetry detects thiols as they appear.
Data set [3] deals with Plasma. Put plainly: Effect on auto-carbonylation of human plasma protein at 0.1 to 100 uM. To be noted: dose 0.1-100 µM. The class given is ADME, cell-free.
In data set [4] the test system is Plasma. Put plainly: Antioxidant activity in human plasma protein assessed as reduction of H2O2-induced oxidation of thiol group at 10 uM incubated for 30 mins by Ellman reagent based spectrophotometry. Format: functional, cell-free.
The subject of data set [5] is Plasma. Put plainly: Antioxidant activity in human plasma protein assessed as reduction of H2O2-induced plasma protein carbonylation at 10 uM incubated for 30 mins. Format: functional, cell-free.
Data set [6] deals with Plasma. Put plainly: Effect on autoxidation of thiol group in human plasma protein at 0.1 to 100 uM by Ellman reagent based spectrophotometry. Format: ADME, cell-free. To be noted: dose 0.1-100 µM.
In data set [7] the test system is Plasma. As to the kind of experiment: Antioxidant activity in human plasma assessed as inhibition of H2O2/[…]-induced lipid peroxidation at 10 uM incubated for 30 mins by TBARS assay. Format: functional, cell-free.
The test system of data set [8] is Plasma. Put plainly: Antioxidant activity in human plasma assessed as inhibition of H2O2-induced lipid peroxidation at 10 uM incubated for 30 mins by TBARS assay. The class given is functional, cell-free.

On to `COc1c2cc(c(OC)c1O)Oc1ccc(cc1)CCCC[C@@H](O)/C=C\2`, for which the outcome in data set [1], in data set [2], in data set [4] and in data set [5] was Active. Also, the Activity result in data set [3] and in data set [6] was “Non-Toxic” in each case.

Turning to `O=C1CCc2ccc(O)c(c2)-c2cc(ccc2O)C[C@H](O[C@@H]2O[C@H](CO)[C@@H](O)[C@H](O)[C@H]2O)C[C@@H]1O`, the values for the inhibition in data set [7] and in data set [8] were 4.8% and 3.9%, respectively.

In the case of `O=C1/C=C/CCc2ccc(O)c(c2)-c2cc(ccc2O)CC1`, the result in data set [2] and in data set [4] was Active. The Activity result in data set [3] and in data set [6] was “Non-Toxic” throughout.

As to `COc1c2cc(c(OC)c1O)Oc1ccc(cc1)[C@@H](O)C[C@H](O)CC/C=C/2`, the inhibition in data set [7] worked out at 4%; in data set [8] it was 2.7%.

For the compound `Oc1ccc2cc1-c1cc(ccc1O)C[C@H](O)[C@H](O)C(O)[C@@H](O)[C@H](O)C2` (some centres undefined), the inhibition in data set [7] was 10.4%; in data set [8] it was 33.6%.

With `COc1c(O)cc2cc1Oc1ccc(cc1)CC[C@@H](O)/C=C/C=C\2`, the result in data set [1], in data set [2], in data set [4] and in data set [5] was Active. In addition, the Activity entry in data set [3] and in data set [6] was “Non-Toxic” throughout.

For the compound `COc1c2cc(c(OC)c1O)Oc1ccc(cc1)CC[C@@H](O)/C=C/C=C\2`, the Activity is 65% in data set [1] (0.5 h), “Non-Toxic” in data set [3] and “Non-Toxic” in data set [6]. In addition, the result in data set [2], in data set [4] and in data set [5] was Active.

Take `COc1cc(/C=C/C(=O)CC(=O)/C=C/c2ccc(O)c(OC)c2)ccc1O`: the inhibition in data set [7] worked out at 23.2%; in data set [8] it was 20.6%.

As to `O=C1C[C@@H](O)Cc2ccc(O)c(c2)-c2cc(ccc2O)C[C@H](O)[C@H]1O`, the inhibition in data set [7] worked out at 4.2%; in data set [8], 6.2%.

Turning to `COc1c2cc(c(OC)c1O)Oc1ccc(cc1)[C@@H](O)C[C@H](O)/C=C/C=C/2`, the inhibition in data set [7] worked out at 25.5%; in data set [8], 24.2%. Moreover, the figures for the Activity in data set [1] (0.5 h), in data set [3] and in data set [6] were 65%, “Non-Toxic” and “Non-Toxic”, respectively. The outcome in data set [2], in data set [4] and in data set [5] was Active.

Regarding `Oc1ccc2cc1-c1cc(ccc1O)C[C@H](O)[C@@H](O)[C@@H](O)C[C@@H](O)C2`, the inhibition in data set [7] worked out at 14.4%; in data set [8], 33.3%.

As to `COc1c2cc(c(OC)c1O)Oc1ccc(cc1)CCC(=O)CC/C=C\2`, the result in data set [2] and in data set [4] was Active. Further, the Activity result in data set [3] and in data set [6] was “Non-Toxic” throughout.

On to `O=C1[C@@H](O)Cc2ccc(O)c(c2)-c2cc(ccc2O)C[C@@H](O)[C@H](O)[C@H]1O`, for which the inhibition came to 23.9% in data set [7] and 3.8% in data set [8].

On to `O=C1CCc2ccc(O)c(c2)-c2cc(ccc2O)C[C@H](O)[C@@H](O)[C@@H]1O`, for which the result in data set [1], in data set [2], in data set [4] and in data set [5] was Active. In addition, the Activity result in data set [3] and in data set [6] was “Non-Toxic” throughout.

`O=C1CCc2ccc(O)c(c2)-c2cc(ccc2O)C[C@@H](O)[C@H](O)C1`: the inhibition in data set [7] is 11.2%; in data set [8], 3.9%.

`O=C1CCc2ccc(O)c(c2)-c2cc(ccc2O)C[C@H](O)C[C@H]1O`: the inhibition came to 34.1% in data set [7] and 44.4% in data set [8]. Further, the outcome in data set [1], in data set [2], in data set [4] and in data set [5] was Active. In addition, the Activity result in data set [3] and in data set [6] was “Non-Toxic” in each case.
